Reference: patent US20250161281A1, “EMOPAMIL-BINDING PROTEIN INHIBITORS AND USES THEREOF” (BIOGEN MA INC., priority 2022, published 2025)

target: T1, EBP (Homo sapiens, UniProt Q15125); experiment: EBP Functional Assay (EBP immunoaffinity LC-MS assay); format: biochemical; conditions: HEK293T cells as source of EBP enzyme; 30 min with inhibitor, then zymosterol-d5, 37° C. for 4 h; percent conversion by LC-APCI MRM MS
T1 construct: HEK293T cells were utilized as the source of EBP enzyme; endogenous in cells; host or cells: HEK293T
T1 sequence (Q15125 whole entry): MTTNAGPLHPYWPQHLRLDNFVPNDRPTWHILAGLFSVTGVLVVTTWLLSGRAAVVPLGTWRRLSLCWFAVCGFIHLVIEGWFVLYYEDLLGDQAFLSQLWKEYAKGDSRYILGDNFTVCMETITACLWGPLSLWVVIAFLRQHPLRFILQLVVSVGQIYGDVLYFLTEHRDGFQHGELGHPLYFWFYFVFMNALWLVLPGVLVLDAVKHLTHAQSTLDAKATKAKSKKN
Experimental: The EBP immunoaffinity (IA) LC-MS assay measures the potency of small molecule inhibitors of EBP by quantifying their concentration-dependent changes in the enzyme's substrate and product using liquid chromatography atmospheric pressure chemical ionization multiple reaction monitoring mass spectrometry (LC-APCI MRM MS). HEK293T cells were utilized as the source of EBP enzyme. The enzyme was incubated with the small molecule inhibitors at variable concentrations for 30 min. Deuterated form of EBP substrate, zymosterol-d5 (Avanti Polar Lipids, Cat #700068P-1 mg), was then added and the plate was incubated at 37° C. for 4 h. Finally, the sterol isomers were extracted and injected to LC-APCI MRM MS. MRM transition used for the quantification for both zymosterol and dihydrolathosterol (substrate and product of EBP enzymatic reaction, respectively) is 372.3-203.2, CE 30 and DP 80 in positive ion mode. Percent conversion of the zymosterol-d5 to dehydrolathosterol-d5 was used to derive IC50 curves. Tasin-1 (1′-[(4-Methoxyphenyl)sulfonyl]-4-methyl-1,4′-bipiperidine, CAS 792927-06-1) was used as the reference small molecule inhibitor. Percent conversion versus the compound concentration data were fit to the following 4-parameter logistic model to generate IC50 curves: […]

| Compound | IC50 [µM] |
| --- | --- |
| COc1cc(F)c(S(=O)(=O)N2[C@@H]3CC[C@H]2C[C@H](N2CCC(C)CC2)C3)c(F)c1 [Example 43, (1R,3s,5S)-8-((2,6-Difluoro-4-methoxyphenyl)sulfonyl)-3-(4-methylpiperidin-1-yl)-8-azabicyclo[3.2.1]octane] | 0.05 to 0.15 |
| O=S(=O)(c1ccc(OC(F)F)cc1)N1[C@@H]2CC[C@H]1C[C@@H](NCC1(F)COC1)C2 (single isomer, unassigned) [Example 71] | 0.15 to 2 |
| CC(C)(O)CN[C@@H]1C[C@H]2CC[C@@H](C1)N2S(=O)(=O)c1ccc(OC(F)F)cc1 [Example 76, 1-(((1R,3s,5S)-8-((4-(Difluoromethoxy)phenyl)sulfonyl)-8-azabicyclo[3.2.1]octan-3-yl)amino)-2-methylpropan-2-ol] | 0.15 to 2 |
| CN(C1CCOCC1)[C@@H]1C[C@H]2CC[C@@H](C1)N2S(=O)(=O)c1ccc(OC(F)F)cc1 [Example 66, (1R,3s,5S)-8-((4-(difluoromethoxy)phenyl)sulfonyl)-N-methyl-N-(tetrahydro-2H-pyran-4-yl)-8-azabicyclo[3.2.1]octan-3-amine] | 0.15 to 2 |
| COCCC1CN(C2CC3CCC(C2)N3S(=O)(=O)c2ccc(OC(F)F)cc2)C1 (stereo not drawn) [Example 54, 8-((4-(Difluoromethoxy)phenyl)sulfonyl)-3-(3-(2-methoxyethyl)azetidin-1-yl)-8-azabicyclo[3.2.1]octane] | 0.15 to 2 |
| Cc1cc(C)c(S(=O)(=O)N2[C@@H]3CC[C@H]2C[C@H](CN2CCOCC2)C3)cn1 [Example 39, 4-(((1R,3s,5S)-8-((4,6-Dimethylpyridin-3-yl)sulfonyl)-8-azabicyclo[3.2.1]octan-3-yl)methyl)morpholine] | 0.05 to 0.15 |
| Cc1nc(C(F)(F)F)ccc1S(=O)(=O)N1[C@@H]2CC[C@H]1C[C@H](NC1CCOCC1)C2 [Example 75, (1R,3s,5S)-8-((2-Methyl-6-(trifluoromethyl)pyridin-3-yl)sulfonyl)-N-(tetrahydro-2H-pyran-4-yl)-8-azabicyclo[3.2.1]octan-3-amine] | 0.15 to 2 |

The remaining lines, values ahead:

| IC50 [µM] | Compound |
| --- | --- |
| < 0.05 | Cc1nc(C(F)(F)F)ccc1S(=O)(=O)N1[C@@H]2CC[C@H]1C[C@@H](N1CC3(COC3)C1)C2 (single isomer, unassigned) [Example 23] |
| < 0.05 | CN(C1CCOCC1)[C@H]1C[C@H]2CC[C@@H](C1)N2S(=O)(=O)c1ccc(OC(F)F)cc1 [Example 65, (1R,3r,5S)-8-((4-(difluoromethoxy)phenyl)sulfonyl)-N-methyl-N-(tetrahydro-2H-pyran-4-yl)-8-azabicyclo[3.2.1]octan-3-amine] |
| < 0.05 | Cc1noc(C)c1S(=O)(=O)N1[C@@H]2CC[C@H]1C[C@H](CN1CCOCC1)C2 [Example 38, 4-(((1R,3s,5S)-8-((3,5-Dimethylisoxazol-4-yl)sulfonyl)-8-azabicyclo[3.2.1]octan-3-yl)methyl)morpholine] |
| < 0.05 | CC1CCN([C@H]2C[C@H]3CC[C@@H](C2)N3S(=O)(=O)c2ccc(OC(F)F)cc2)CC1 [Example 20, (1R,3r,5S)-8-((4-(difluoromethoxy)phenyl)sulfonyl)-3-(4-methylpiperidin-1-yl)-8-azabicyclo[3.2.1]octane] |
| < 0.05 | O=S(=O)(c1ccc(OC(F)F)cc1)N1[C@@H]2CC[C@H]1C[C@](O)(CN1CCOCC1)C2 [Example 33, (1R,3r,5S)-8-((4-(Difluoromethoxy)phenyl)sulfonyl)-3-(morpholinomethyl)-8-azabicyclo[3.2.1]octan-3-ol] |
